# Test results as given in US20260224592A1, “COMPOSITIONS AND METHODS FOR TREATING SEVERE […]” (SHENZHEN HIGHTIDE BIOPHARMACEUTICAL LTD., priority 2023, published 2026).
# Key:
# [1] = tested on: high fat diet induced hyperlipidemia/NAFLD hamster model; test: Study B: hyperlipidemia/NAFLD hamster model, BUDCA versus UDCA or BBR-Cl, 6 weeks treatment; type: in vivo, golden hamster; details: for Serum lipids HDL-c / Serum lipids LDL-c / Serum lipids TC / Serum lipids TG: 6 weeks daily oral, equimolar high doses: 200 mg/kg BUDCA; for Serum lipids HDL-c / Serum lipids LDL-c / Serum lipids TC / Serum lipids TG / Liver TC / Liver TG / Proportion of oil red O staining positive area / Steatosis Score of HE staining: 107.8 mg/kg UDCA, 102.2 mg/kg BBR-Cl, mean ± SEM; for Liver TC / Liver TG / Proportion of oil red O staining positive area / Steatosis Score of HE staining: 200 mg/kg BUDCA
# Description: Study B was conducted using the same hamster model as described in Study A to evaluate the efficacy of BUDCA as well as to compare the effects of BUDCA with equivalent doses of either UDCA or BBR-Cl on their own. The model was induced with the same method as indicated in Study A. After the 2-week induction period, hamsters were randomized into treatment groups and continued the high fat diet for an additional 6-week period, concurrent with the daily oral administration of various doses of BUDCA (Low dose: […]; Medium dose: 100 mg/mL; […]), BBR-Cl on its own (Low dose: 51.1 mg/mL; […]), UDCA on its own (Low dose: 53.9 mg/mL; […]), or a 1:1 physical mixture of BBR-Cl and UDCA equivalent to a lower dose of BUDCA (105.0 mg/mL). A model control group continued the high fat diet and normal control group fed the standard diet were both administered the vehicle 0.5% carboxymethyl cellulose sodium (CMC-Na) solution. All animals were sacrificed for terminal evaluations at the end of the 6-week dosing period.
# Endpoints evaluated included serum lipids (TC, TG, LDL-C, HDL-C), liver lipid content (TC and TG), liver injury (ALT, AST, total bile acids (TBA) and total bilirubin (TBIL)), liver weight (expressed relative to body weight as liver index), macroscopic observation and histopathology evaluation of the livers. Histopathology endpoints included pathologist observation, as well as numerical comparison via the nonalcoholic fatty liver disease activity score (NAS) and a fibrosis severity score.
# Terminal endpoints in model control animals also confirmed increased liver weight and histopathology of the liver as evidenced by steatosis, hepatocytes swelling, punctate necrosis, inflammatory cell infiltration and local fibrosis. Therefore, the model was not only able to replicate key characteristics of the NAFLD disease spectrum in humans, but also hyperlipidemia.
# [2] = tested on: adults with NASH and T2DM; test: Study D: randomized, double-blind, placebo-controlled Phase 2 study in adults with NASH and T2DM, 18 weeks; type: in vivo, human
# Description: Study D was a randomized, double-blind, placebo-controlled Phase 2 study in adults with NASH and T2DM. The primary objective of this study was to evaluate the change from baseline in liver fat content as assessed by MRI-PDFF, but also evaluated changes in key cardiometabolic parameters, including lipids. Key entry criteria included the clinical diagnosis of NASH and T2DM and BMI >25.0 kg/m2. Subjects were randomized and treated with placebo (N=33), BUDCA 500 mg BID (N=33), or BUDCA 1000 mg BID (N=34) for 18 weeks (Harrison 2021).
# Demographic characteristics were generally well balanced among treatment groups. The median age overall was 57 years (range: 26 to 75 years), and there were 72% females and 28% males. Most subjects were White (91%) and not Hispanic or Latino (62%). Mean baseline weight and BMI were similar across treatment groups. On average, LDL-C was elevated and near the upper limit of the normal range and TGs were elevated above the normal. Baseline values for HbA1c, ALT, GGT, liver fat content, and cT1 were similar across treatment groups.
# Study D evaluated the effects of BUDCA on lipids as secondary efficacy endpoints. On average, subjects had near-normal LDL-C at baseline with borderline-high levels of TG. While the average values were generally similar across treatment groups, it should be noted that LDL-C was lower in the BUDCA 500 mg BID treatment group while TGs were lower in the BUDCA 1000 mg BID treatment group (Table 6). […] Reductions in TGs with the […] dose were statistically significant compared with placebo. Reduced TG levels were paralleled with a reduction in LDL-C after 18 weeks of treatment with BUDCA 1000 mg BID (−13%), but not with BUDCA 500 mg BID (3%) or with placebo (0%).
# [3] = tested on: overweight or obese adults with hypercholesterolemia; test: Study C: Phase 1b/2a study in overweight or obese adults with hypercholesterolemia, 28 days; type: in vivo, human; details: BUDCA 250, 500 or 1000 mg BID, maximum reductions relative to placebo after 14 days
# Description: In a Phase 1b/2a study, 50 overweight or obese adults with hypercholesterolemia were enrolled and treated with BUDCA for 28 days. The primary objective was to evaluate safety and tolerability of BUDCA. Given that the subjects enrolled in this study were obese with a history of hypercholesteremia, the focus of the efficacy and PD endpoints was lipid metabolism. Key entry criteria included BMI 2 and LDL-C, BUDCA 250 mg BID (N=12), BUDCA 500 mg BID (N=12), or BUDCA 1000 mg BID (N=12).
# While all subjects had hypercholesteremia at baseline, TG levels generally ranged from normal to mild HTG (three subjects from each of placebo, BUDCA 500 mg BID, and BUDCA 1000 mg BID had TG values >200 mg/dL) and HDL-C levels were generally in the normal range.
# subjects with HTG = test: Pooled analysis of Study C and Study D in subjects with HTG (baseline TGs above 200 mg/dL); type: in vivo, human; details: for placebo-corrected median percent change from baseline in TGs: end of treatment
# Description: Efficacy was also tested in two clinical studies that established merits for further clinical study in patients with SHTG: Study C was conducted in adults with hypercholesterolemia and […] and T2DM. A pooled analysis was conducted based on these two studies specifically evaluating the data from subjects who had HTG at baseline (TG 200 mg/dL).
# To further investigate the potential of BUDCA for lowering TGs in patients with elevated TGs, a pooled analysis across studies Study C and Study D was conducted focusing on the subjects with baseline TGs above 200 mg/dL (HTG) (Table 6). The analysis pooled the baseline and end of treatment timepoints for this evaluation as the two studies had different durations (4 weeks vs 18 weeks).
# [4] = tested on: high fat diet induced hyperlipidemia/NAFLD hamster model; test: Study A: high-fat/high-cholesterol diet induced hyperlipidemia/NAFLD hamster model, 7 weeks treatment; type: in vivo, Male Golden Syrian hamsters; details: for HDL-c (serum) / LDL-c (serum) / PCSK9 (serum) / TC (serum) / TG (serum) / AI value (atherosclerosis index): mean ± SEM; for AI value (atherosclerosis index): AI = (TC − HDL-c)/HDL-c
# Description: Various pre-clinical and clinical studies were performed to evaluate safety and efficacy of BUDCA. Primary and secondary pharmacodynamics studies were performed. Specific to nonclinical proof of concept for BUDCA in SHTG, the efficacy of BUDCA on hyperlipidemia/NAFLD was evaluated in two studies (Study A and Study B) using a high fat diet induced hyperlipidemia/NAFLD hamster model. Dietary induced changes in hamsters can be considered a valid model for dyslipidemia.
# Male Golden Syrian hamsters were fed with a high-fat/high-cholesterol diet which contained 1.25% cholesterol, 20.06% grease (2.79% soybean oil, 17.27% cocoa butter) to establish the hyperlipidemia/NAFLD model. After 2 weeks of high-fat/high-cholesterol diet inducement, 24 hamsters with fasting TC level 17.96±1.70 mmol/L were selected and divided into 3 groups of 8 hamsters each (model group G1, 50 mg/kg/day BUDCA group G2, and 200 mg/kg/day BUDCA group G3). Eight hamsters comprising the normal control were fed with a normal chow diet.
# The normal and Model control groups received vehicle (10 mL/kg 0.5% gum tragacanth solution), while the two BUDCA treatment groups received BUDCA, via intragastric administration for 7 weeks prior to sacrifice.
# During the treatment period, blood was collected at weeks 1, 3, 5, and 7, for biochemical analysis including serum TC, TG, HDL-c, LDL-c, and liver enzymes. At the end of the study, animals were sacrificed for liver macroscopic observation and liver tissues were collected for histopathological evaluations and liver lipid contents.
# [5] = both doses of BUDCA, HTG subgroup
# [6] = 50 mg/kg/day BUDCA intragastric, 7 weeks
# [7] = 200 mg/kg/day BUDCA intragastric, 7 weeks
compound,measurement,setting,value
COc1ccc2cc3[n+](cc2c1OC)CCc1cc2c(cc1-3)OCO2.[Cl-] [BBR-Cl],Serum lipids HDL-c,[1],5.24 ± 0.30 mmol/L
same,Serum lipids LDL-c,[1],6.53 ± 1.10 mmol/L
same,Serum lipids TC,[1],14.86 ± 1.23 mmol/L
same,Serum lipids TG,[1],3.72 ± 0.37 mmol/L
same,Liver TC,[1]; 6 weeks,29.27 ± 4.47 mg/g
same,Liver TG,[1]; 6 weeks,19.18 ± 2.24 mg/g
same,Proportion of oil red O staining positive area,[1]; 6 weeks,18.97 ± 2.43 %
same,Steatosis Score of HE staining,[1]; 6 weeks,2.75 ± 0.16
"COc1ccc2cc3[n+](cc2c1OC)CCc1cc2c(cc1-3)OCO2.C[C@H](CCC(=O)[O-])[C@H]1CC[C@H]2[C@@H]3[C@@H](O)C[C@@H]4C[C@H](O)CC[C@]4(C)[C@H]3CC[C@]12C [BUDCA, Berberine Ursodeoxycholate]",HbA1c change from baseline,"[2]; 18 weeks of BUDCA treatment (500 and 1000 mg BID), in contrast to increase with placebo",Significant dose dependent reductions
same,"LDL-C, change from baseline to week 18","[2]; BUDCA 500 mg BID, 18 weeks",3%
same,"TG levels, change from baseline to week 18","[2]; BUDCA 500 mg BID, 18 weeks",−9%
same,mean change in fasting plasma glucose,"[2]; BUDCA 500 mg BID, 18 weeks",-18 mg/dL
same,"LDL-C, change from baseline to week 18","[2]; BUDCA 1000 mg BID, 18 weeks",−13%
same,"TG levels, change from baseline to week 18","[2]; BUDCA 1000 mg BID, 18 weeks",−11%
same,mean change in fasting plasma glucose,"[2]; BUDCA 1000 mg BID, 18 weeks",-22 mg/dL
same,change from baseline in body weight,"[2]; BUDCA 1000 mg BID, 18 weeks, p<0.05 vs placebo",-3.5 kg
same,serum lipid levels,[3],decreased in a dose-dependent fashion
same,Serum lipids HDL-c,[1],4.25 ± 0.40 mmol/L
same,Serum lipids LDL-c,[1],1.26 ± 0.15 mmol/L
same,Serum lipids TC,[1],7.03 ± 0.73 mmol/L
same,Serum lipids TG,[1],2.06 ± 0.39 mmol/L
same,Liver TC,[1]; 6 weeks,4.59 ± 0.84 mg/g
same,Liver TG,[1]; 6 weeks,3.92 ± 0.50 mg/g
same,Proportion of oil red O staining positive area,[1]; 6 weeks,1.18 ± 0.69 %
same,Steatosis Score of HE staining,[1]; 6 weeks,1.00 ± 0.38
same,"serum TC and TG, LDL-C, ALT, AST, TBA, TBIL, liver weight, liver TC and TG, NAS score, and fibrosis (score and % area)","[1]; relative to model control animals, low, medium and high dose BUDCA, 6 weeks",reduced all the following parameters in a dose dependent manner
same,"beneficial effects on most parameters, including serum lipids and liver lipid deposition, compared with the individual moieties",[1]; versus equivalent doses of UDCA or BBR administered alone,greater than those achieved with either UDCA or BBR when administered alone
same,placebo-corrected median percent change from baseline in TGs,"subjects with HTG; BUDCA 500 mg BID, 95% CI (−52.63, 17.93)",−12.3%
same,HDL-C at the end of treatment,"subjects with HTG; BUDCA 1000 mg BID, HTG population",increase in HDL-C
same,placebo-corrected median percent change from baseline in TGs,"subjects with HTG; BUDCA 1000 mg BID, 95% CI (−55.57, 16.61)",−17.7%
same,change from baseline to end of treatment in body weight,"subjects with HTG; BUDCA 1000 mg BID, subjects with HTG, based solely on one of the two studies",-4.6 kg
same,LDL-C at the end of treatment,"subjects with HTG; both doses of BUDCA (500 and 1000 mg BID), HTG population",decrease in LDL-C
same,HbA1c,subjects with HTG; [5],no worsening of HbA1c
same,fasting plasma glucose,subjects with HTG; [5],decrease in fasting plasma glucose
same,HDL-c (serum),[4]; [6],3.42 ± 0.28 mmol/L
same,LDL-c (serum),[4]; [6],2.95 ± 1.72 mmol/L
same,PCSK9 (serum),[4]; [6],124.9 ± 16.8 pg/mL
same,TC (serum),[4]; [6],9.78 ± 2.58 mmol/L
same,TG (serum),[4]; [6],3.88 ± 1.21 mmol/L
same,Liver TC,"[4]; 50 mg/kg/day BUDCA, 7 weeks",14.62 ± 4.89 mg/g
same,Liver TG,"[4]; 50 mg/kg/day BUDCA, 7 weeks",5.40 ± 2.64 mg/g
same,AI value (atherosclerosis index),"[4]; 50 mg/kg/day BUDCA, 7 weeks",1.88 ± 0.83
same,HDL-c (serum),[4]; [7],2.53 ± 0.29 mmol/L
same,LDL-c (serum),[4]; [7],1.23 ± 0.28 mmol/L
same,PCSK9 (serum),[4]; [7],179.0 ± 30.9 pg/mL
same,TC (serum),[4]; [7],4.95 ± 0.84 mmol/L
same,TG (serum),[4]; [7],1.90 ± 0.66 mmol/L
same,Liver TC,"[4]; 200 mg/kg/day BUDCA, 7 weeks",3.82 ± 1.78 mg/g
same,Liver TG,"[4]; 200 mg/kg/day BUDCA, 7 weeks",5.61 ± 1.98 mg/g
same,AI value (atherosclerosis index),"[4]; 200 mg/kg/day BUDCA, 7 weeks",0.95 ± 0.19
same,serum PCSK9 levels compared to the Model control group,"[4]; 7-weeks of BUDCA treatment, P<0.05",significantly reduced
same,"serum TG, TC, LDL-c levels, and AI compared to the model group","[4]; BUDCA 50 and 200 mg/kg/day, 7 weeks, P<0.01, dose-dependent",significantly reduced
same,liver contents of TG and TC compared to the model group,"[4]; both doses of BUDCA, 7 weeks, P<0.01",significantly decreased
C[C@H](CCC(=O)O)[C@H]1CC[C@H]2[C@@H]3[C@@H](O)C[C@@H]4C[C@H](O)CC[C@]4(C)[C@H]3CC[C@]12C [UDCA],Serum lipids HDL-c,[1],4.81 ± 0.15 mmol/L
same,Serum lipids LDL-c,[1],3.83 ± 0.47 mmol/L
same,Serum lipids TC,[1],10.13 ± 0.73 mmol/L
same,Serum lipids TG,[1],2.17 ± 0.18 mmol/L
same,Liver TC,[1]; 6 weeks,17.95 ± 4.04 mg/g
same,Liver TG,[1]; 6 weeks,11.24 ± 2.69 mg/g
same,Proportion of oil red O staining positive area,[1]; 6 weeks,11.72 ± 4.65 %
same,Steatosis Score of HE staining,[1]; 6 weeks,2.13 ± 0.35
